Patent US6344458B1, “Piperazine ethylamide derivatives” (American Home Products Corporation, priority 1998, dated 2002)
pEC50, pIC50, pKi: −log10 of the molar value. Structures can show the parent of a compound that is named as a salt.

Legend:
[1] = biological target: T1, human 5HT1A receptor (Homo sapiens, UniProt P08908); test: 5-HT1A Receptor Binding Assay ([3H] 8-OH-DPAT displacement); details: displacement of [3H] 8-OH-DPAT, CHO cells stably transfected with human 5HT1A receptor
T1 construct: expressed in transfected cells; host or cells: CHO cells (stably transfected)
T1 sequence (P08908 1-422): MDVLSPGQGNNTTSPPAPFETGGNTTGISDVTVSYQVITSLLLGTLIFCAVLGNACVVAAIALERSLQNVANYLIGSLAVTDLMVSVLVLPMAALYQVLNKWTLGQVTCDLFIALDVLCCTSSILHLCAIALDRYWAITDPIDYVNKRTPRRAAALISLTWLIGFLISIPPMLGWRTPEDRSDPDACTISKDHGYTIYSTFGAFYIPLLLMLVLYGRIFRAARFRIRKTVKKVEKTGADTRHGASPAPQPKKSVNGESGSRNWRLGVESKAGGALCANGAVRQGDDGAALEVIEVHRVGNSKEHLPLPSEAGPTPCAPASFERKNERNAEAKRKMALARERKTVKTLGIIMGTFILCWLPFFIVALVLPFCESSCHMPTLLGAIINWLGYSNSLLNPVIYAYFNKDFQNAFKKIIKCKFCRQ
Description: 5-HT1A Receptor Binding Assay
High affinity for the serotonin 5-HT1A receptor was established by testing a compound's ability to displace [^3H] 8-OH-DPAT binding in CHO cells stably transfected with the human 5HT1A receptor. Stably transfected CHO cells are grown in DMEM containing 10% heat inactivated FBS and non-essential amino acids. Cells are scraped off the plate, transferred to centrifuge tubes, and washed twice by centrifugation (2000 rpm for 10 min., 4° C.) in buffer (50 mM Tris pH 7.5). The resulting pellets are aliquoted and placed at −80° C. On the day of assay, the cells are thawed on ice and resuspended in buffer. The binding assay is performed in a 96 well microtiter plate in a total volume of 250 μL. Non-specific binding is determined in the presence of […] 5-HT, final ligand concentration is 1.5 nM. Following a 30 minute incubation at room temperature, the reaction is terminated by the addition of ice cold buffer and rapid filtration through a GF/B filter presoaked for 30 minutes in 0.5% PEI. Compounds are initially tested in a single point assay to determine percent inhibition at […], and Ki values are determined for the active compounds.

[2] = biological target: T1, human 5HT1A receptor; test: 5-HT1A Receptor Intrinsic Activity Assay (reversal of forskolin-stimulated cAMP); format: cell-based; details: for Emax: agonist activity, cAMP, forskolin-stimulated CHO cells with human 5-HT1A receptor
Description: 5-HT1A Receptor Intrinsic Activity Assay
The intrinsic activity of compounds of the present invention was established by testing the claimed compounds ability to reverse the stimulation of cyclic adenosinemonophosphate (cAMP) in CHO cells stably transfected with the human 5-HT1A receptor.
Stably transfected CHO cells were grown in DMEM containing 10% heat inactivated FBS and non-essential amino acids. The cells are plated at a density of […] per well in a 24 well plate and incubated for 2 days in a CO2 incubator. On the second day, the media is replaced with 0.5 mL treatment buffer (DMEM+25 mM HEPES, 5 mM theophylline, 10 μM pargyline) and incubated for 10 minutes at 37° C. Wells are treated with forskolin (1 μM final concentration) followed immediately by the test compound (0.1 and 1 μM for initial screen) and incubated for an additional 10 minutes at 37° C. The reaction is terminated by removal of the media and addition of 0.5 mL ice cold assay buffer (supplied in the RIA kit). Plates are stored at −20° C. prior to assessment of cAMP formation by RIA. EC50 values are determined for the active test compounds. Compounds shown to have no agonist activities (Emax=0%) are further analyzed for their ability to reverse agonist induced activity. In separate experiments, 6 concentrations of antagonist are preincubated for 20 minutes prior to the addition of agonist and forskolin. Cells are harvested as described above. The cAMP kit is supplied by Amersham and the RIA is performed as per kit instructions, and calculations of IC50 performed by GraphPad Prism.

Row | Structure (SMILES) | pKi [1] | Emax [2] | melting point | also measured
1 | COc1ccccc1N1CCN(CCN(Cc2cccc3ccccc23)C(=O)C2CCCCC2)CC1 [Compound 4, Cyclohexanecarboxylic acid{2-[4-(2-methoxy-phenyl)-piperazin-1-yl]-ethyl}-naphthalen-1-ylmethl-amide] | 7.59 | 88% |  | 
2 | COc1ccccc1N1CCN(CCN(Cc2ccccc2)C(=O)C2CCCCC2)CC1 (as salt: fumarate) [Compound 2, Cyclohexanecarboxylic acid benzyl-{2-[4-(2-methoxy-phenyl)-piperazin-1-yl]-ethyl}-amide] |  |  | 144 to 146 °C | 
3 | COc1ccccc1N1CCN(CCN(Cc2ccccc2)C(=O)C2CCCCC2)CC1 [Compound 2, Cyclohexanecarboxylic acid benzyl-{2-[4-(2-methoxy-phenyl)-piperazin-1-yl]-ethyl}-amide] | 8.74 | 36% |  | pEC50 ([2]; agonist mode, reversal of forskolin-stimulated cAMP in CHO cells): 8.38
4 | COc1ccccc1N1CCN(CCNC(=O)c2ccccc2)CC1 (as salt: fumaric acid salt) [Compound 1, N-{2-[4-(2-Methoxy-phenyl)-piperazin-1-yl]-ethyl}-benzamide] |  |  | 136 to 138 °C | 

Continued, in another order:

Row | pKi [1] | Emax [2] | melting point | Structure (SMILES) | also measured
5 | 8.92 | 0% |  | COc1ccccc1N1CCN(CCN(Cc2ccc3ccccc3c2)C(=O)C2CCCCC2)CC1 [Compound 6, Cyclohexanecarboxylic acid-{2-[4-(2-methoxy-phenyl)-piperazin-1-yl]-ethyl}-naphthalen-2-ylmethyl-amide] | pIC50 ([2]; antagonist mode, reversal of agonist induced activity, preincubated 20 minutes before agonist and forskolin): 7.62
6 | 7.70 | 77% |  | COc1ccccc1N1CCN(CCN(CCCc2ccccc2)C(=O)C2CCCCC2)CC1 [Compound 8, Cyclohexanecarboxylic acid-{2-[4-(2-methoxy-phenyl)-piperazin-1-yl]-ethyl}-(3-phenyl-propyl)-amide] | 
7 |  |  | 103 to 105 °C | COc1ccccc1N1CCN(CCN(CCCc2ccccc2)C(=O)C2CCCCC2)CC1 (as salt: fumarate) [Compound 8, Cyclohexanecarboxylic acid-{2-[4-(2-methoxy-phenyl)-piperazin-1-yl]-ethyl}-(3-phenyl-propyl)-amide] | 
8 |  |  | 204 to 206 °C | COc1ccccc1N1CCN(CCN(Cc2cccc3ccccc23)C(=O)C2CCCCC2)CC1 (as salt: fumarate) [Compound 4, Cyclohexanecarboxylic acid{2-[4-(2-methoxy-phenyl)-piperazin-1-yl]-ethyl}-naphthalen-1-ylmethl-amide] | 
9 |  |  | 107 to 108 °C | COc1ccccc1N1CCN(CCNC(=O)CCc2ccccc2)CC1 (as salt: fumaric acid salt) [Compound 7, N-{2-[4-(2-Methoxy-phenyl)-piperazin-1-yl]-ethyl}-3-phenyl-propionamide] | 
